Laboratory results as given in patent EP4755888A1 (ILAb Co., Ltd., priority 2023, dated 2025).
pEC50, pIC50: −log10 of the molar value. Where two headings read alike, the source gives them in different places.

What was measured:
PD-1/PD-L1 [1] = test: PD-1/PD-L1 blockade bioassay at the cellular level (PD-L1 aAPC/CHO-K1 cells + PD-1 Effector T cells, luciferase); format: cell-based; settings: Homo sapiens, T-cell; PD-L1 aAPC/CHO-K1 cells with PD-1 Effector T cells, 6 hours, luminescence; read-out: PD-1/PD-L1 Inhibitory Activity EC50
Description: In order to evaluate the effect of the compounds of the present invention, synthesized according to the above Preparation Examples, on blocking signal transduction between PD-1/PD-L1-expressing cells, a PD-1/PD-L1 blockade bioassay was conducted as described below.
Specifically, PD-L1 aAPC/CHO-K1 cells engineered to express human PD-L1 were seeded into a 96-well white plate and cultured for one day. On the following day, the compounds were prepared in a 96-well plate by serial dilution at concentrations starting from 10 µM and 5 µM, followed by 1/4 dilutions to obtain a total of ten concentrations. The culture medium in the plate seeded with the PD-L1 aAPC/CHO-K1 cell line was removed, and 40 µL of each prepared compound solution was added to a 96-well plate. Thereafter, 40 µL of PD-1 Effector T cell line engineered to express human PD-1 was additionally added, and then cultured for 6 hours. After 6 hours, 80 µL of Bio-Glo luciferase buffer was added to each well, followed by incubation at room temperature for 10 minutes, and luminescence was measured using a microplate reader.

PD-1/PD-L1 [2] = target: PD-1/PD-L1 (Homo sapiens, UniProt Q9NZQ7); test: TR-FRET PD-1/PD-L1 binding inhibition at the molecular level (free proteins)
PD-1/PD-L1 (Homo sapiens, UniProt Q9NZQ7), sequence (Q9NZQ7 19-238 limits assumed): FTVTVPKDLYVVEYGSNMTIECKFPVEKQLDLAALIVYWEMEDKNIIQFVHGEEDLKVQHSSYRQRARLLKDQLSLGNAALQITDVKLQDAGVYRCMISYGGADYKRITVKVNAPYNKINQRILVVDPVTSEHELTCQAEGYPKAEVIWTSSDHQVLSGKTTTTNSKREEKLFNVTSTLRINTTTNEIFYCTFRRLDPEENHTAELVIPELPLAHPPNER
Summary of the method: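 HTRF read-out at 665/620 nm after 2 h at room temperature. Detection used anti-Tag1 Eu cryptate plus anti-Tag2 XL665 antibodies. Tagged PD-L1 and PD-1 proteins were pre-mixed with compound across twelve […] 1:2 dilutions starting at 200 nM.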

[3] = target: T1, PD-L1 expressed on the cell surface (MC38 hPD-L1) (Homo sapiens, UniProt Q9NZQ7); test: Internalization of cell surface PD-L1, flow cytometry with fluorescent staining; format: cell-based; settings: MC38 hPD-L1 cells, 1 µM, 4 hours; untreated 90% to 99%
T1 construct: expressed in transfected cells; host or cells: MC38 mouse colon cancer cell line expressing human PD-L1
T1 sequence (Q9NZQ7 19-290): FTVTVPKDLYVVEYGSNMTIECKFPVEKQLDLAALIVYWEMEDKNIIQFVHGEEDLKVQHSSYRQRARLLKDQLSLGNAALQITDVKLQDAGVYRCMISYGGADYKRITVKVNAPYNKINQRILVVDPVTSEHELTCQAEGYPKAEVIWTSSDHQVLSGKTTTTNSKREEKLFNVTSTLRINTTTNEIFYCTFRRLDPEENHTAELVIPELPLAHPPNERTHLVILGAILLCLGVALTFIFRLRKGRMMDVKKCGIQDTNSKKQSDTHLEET
Description: In order to evaluate the internalization of cell surface PD-L1 induced by the compounds of the present invention synthesized according to the above Preparation Examples, a flow cytometry experiment using fluorescent staining was conducted as described below.
Specifically, a mouse colon cancer cell line expressing human PD-L1 (MC38 hPD-L1) was seeded into a 24-well plate at a density of 5 x 10^5 cells per well, followed by treatment with Compounds 206 to 227 at a concentration of 1 µM and incubation for 4 hours. After 4 hours, the compound-treated MC38 hPD-L1 cells were collected and stained with PE anti-hPD-L1 fluorecence at room temperature for 30 minutes. The rate of PD-L1 expression on the cell surface was then quantified using flow cytometry.

hPD-L1 = hPD-L1 (Homo sapiens, UniProt Q9NZQ7); test: TR-FRET dimerization of hPD-L1 molecules; format: biochemical
hPD-L1, sequence (Q9NZQ7 19-238 limits assumed): as the sequence (Q9NZQ7 19-238 limits assumed) above
hPD-L1, sequence (Q9NZQ7 19-238 limits assumed): as above
Description: In order to evaluate the dimerization of hPD-L1 molecules induced by the compounds of the present invention synthesized according to the above Preparation Examples, a TR-FRET (Time-Resolved Fluorescence Energy Transfer) experiment was performed as described below.
Specifically, the compounds were prepared in a 96-well plate by serial dilution starting from 10 µM with 1/3 dilutions to obtain a total of twelve concentrations. Thereafter, 2 µL of each compound solution was added to a 384-well plate. Fc tag-hPD-L1 protein and His tag-hPD-L1 protein were each prepared at a 1x concentration, mixed at a ratio of 1:1 of above two proteins, and 8 µL of the mixed protein solution was added to each well of the 384-well plate containing the compounds, followed by incubation at room temperature for one day. On the following day, Anti-6His-Tb Cryptate Gold antibody and Anti-human IgG-XL665 antibody were each prepared at a 1x concentration, mixed at a ratio of 1:1, and 10 µL of the mixed antibody solution was added to each well of the 384-well plate containing the compounds and proteins, followed by incubation at room temperature for 2 hours. Upon completion of the reaction, fluorescence signals at wavelengths of 620 nm and 665 nm were measured using a microplate reader.

[4] = Tag1-PD-L1 and Tag2-PD-1 proteins, twelve concentrations from 200 nM, 2 hours at room temperature, read-out: FRET assay (IC50)

SMILES: O=C(Nc1cccc(-c2cccc(NC(=O)c3cc4n(n3)CCC[C@@H]4NCCO)c2Cl)c1Cl)c1ccc(CNCCO)cn1 [Compound 206, (S)-N-(2,2'-dichloro-3'-(5-(((2-hydroxyethyl)amino)methyl)picolinamido)-[1,1'-biphenyl]-3-yl)-4-((2-hydroxyethyl)amino)-4,5,6,7-tetrahydropyrazolo[1,5-a]pyridine-2-carboxamide]
- pEC50 (PD-1/PD-L1 [1]): 7.80
- pIC50 (PD-1/PD-L1 [2]; [4]): > 8.00
- Cell surface PD-L1 expression level (%) [3]: 0.9%

SMILES: O=C(Nc1cccc(-c2cccc(NC(=O)c3cc4n(n3)CCC[C@H]4NCCO)c2Cl)c1Cl)c1ccc(CNCCO)cn1 [Compound 207, (R)-N-(2,2'-dichloro-3'-(5-(((2-hydroxyethyl)amino)methyl)picolinamido)-[1,1'-biphenyl]-3-yl)-4-((2-hydroxyethyl)amino)-4,5,6,7-tetrahydropyrazolo[1,5-a]pyridine-2-carboxamide]
- pEC50 (PD-1/PD-L1 [1]): 7.07
- pIC50 (PD-1/PD-L1 [2]; [4]): > 8.00
- Cell surface PD-L1 expression level (%) [3]: 77.5%

SMILES: O=C(Nc1cccc(-c2cccc(NC(=O)c3cc4n(n3)CCC[C@@H]4N3CC[C@@H](C(=O)O)C3)c2Cl)c1Cl)c1ccc(CNCCO)cn1 [Compound 208, (R)-1-((S)-2-((2,2'-dichloro-3'-(5-(((2-hydroxyethyl)amino)methyl)picolinamido)-[1,1'-biphenyl]-3-yl)carbamoyl)-4,5,6,7-tetrahydropyrazolo[1,5-a]pyridin-4-yl)pyrrolidine-3-carboxylic acid]
- pEC50 (PD-1/PD-L1 [1]): 7.90
- pIC50 (PD-1/PD-L1 [2]; [4]): > 8.00
- Cell surface PD-L1 expression level (%) [3]: 0.5%

SMILES: Cc1c(NC(=O)c2cc3n(n2)CCC[C@@H]3N2CC[C@@H](C(=O)O)C2)cccc1-c1cccc(Nc2nc(C(F)F)nc3cc(CN4CC[C@@H](O)C4)cnc23)c1C [Compound 210, (R)-1-((S)-2-((3'-((2-(difluoromethyl)-7-(((R)-3-hydroxypyrrolidin-1-yl)methyl)pyrido[3,2-d]pyrimidin-4-yl)amino)-2,2'-dimethyl-[1,1'-biphenyl]-3-yl)carbamoyl)-4,5,6,7-tetrahydropyrazolo[1,5-a]pyridin-4-yl)pyrrolidine-3-carboxylic acid]
- pEC50 (PD-1/PD-L1 [1]): 7.80
- pIC50 (PD-1/PD-L1 [2]; [4]): > 8.00
- Cell surface PD-L1 expression level (%) [3]: 3.2%

SMILES: Cc1c(NC(=O)c2cc3n(n2)CCC[C@@H]3NCC(=O)O)cccc1-c1cccc(Nc2nc(C(F)F)nc3cc(CN4CC[C@@H](O)C4)cnc23)c1C [Compound 212, 2-(((S)-2-((3'-((2-(difluoromethyl)-7-(((R)-3-hydroxypyrrolidin-1-yl)methyl)pyrido[3,2-d]pyrimidin-4-yl)amino)-2,2'-dimethyl-[1,1'-biphenyl]-3-yl)carbamoyl)-4,5,6,7-tetrahydropyrazolo[1,5-a]pyridin-4-yl)amino)acetic acid]
- pEC50 (PD-1/PD-L1 [1]): 7.49
- pIC50 (PD-1/PD-L1 [2]; [4]): > 8.00
- Cell surface PD-L1 expression level (%) [3]: 22.1%

SMILES: Cc1c(NC(=O)c2ccc(CN3CC[C@@H](O)C3)cn2)cccc1-c1cccc(NC(=O)c2cc3n(n2)CCC[C@@H]3NCCO)c1C [Compound 214, (S)-4-((2-hydroxyethyl)amino)-N-(3'-(5-(((R)-3-hydroxypyrrolidin-1-yl)methyl)picolinamido)-2,2'-dimethyl-[1,1'-biphenyl]-3-yl)-4,5,6,7-tetrahydropyrazolo[1,5-a]pyridine-2-carboxamide]
- pEC50 (PD-1/PD-L1 [1]): 7.40
- pIC50 (PD-1/PD-L1 [2]; [4]): > 8.00
- Cell surface PD-L1 expression level (%) [3]: 5.7%

SMILES: Cc1c(NC(=O)c2ccc(CN3CC[C@@H](O)C3)cn2)cccc1-c1cccc(NC(=O)c2cc3n(n2)CCC[C@@H]3N2CC[C@@H](O)C2)c1C [Compound 216, (S)-4-((R)-3-hydroxypyrrolidin-1-yl)-N-(3'-(5-(((R)-3-hydroxypyrrolidin-1-yl)methyl)picolinamido)-2,2'-dimethyl-[1,1'-biphenyl]-3-yl)-4,5,6,7-tetrahydropyrazolo[1,5-a]pyridine-2-carboxamide]
- pEC50 (hPD-L1; Fc tag-hPD-L1 and His tag-hPD-L1, twelve concentrations from 10 µM): 7.60
- induction of dimerization of hPD-L1 molecules (in words) (hPD-L1; summary of Table 3): effectively induced dimerization of hPD-L1 molecules at the nanomolar level
- pEC50 (PD-1/PD-L1 [1]): 7.50
- pIC50 (PD-1/PD-L1 [2]; [4]): > 8.00
- Cell surface PD-L1 expression level (%) [3]: 3.0%

SMILES: Cc1c(NC(=O)c2ccc(CN3CC[C@@H](O)C3)cn2)cccc1-c1cccc(NC(=O)c2cc3n(n2)CCC[C@H]3N2CC[C@@H](O)C2)c1C [Compound 217]
- pEC50 (PD-1/PD-L1 [1]): 6.60
- pIC50 (PD-1/PD-L1 [2]; read-out: FRET assay (IC50), Tag1-PD-L1 and Tag2-PD-1 proteins, twelve concentrations from 200 nM, 2 hours at room temperature): > 8.00
- Cell surface PD-L1 expression level (%) [3]: 82.8%

SMILES: O=C(O)CN[C@H]1CCCn2nc(C(=O)Nc3cccc(-c4cccc(NC(=O)c5ccc(CNCCO)cn5)c4Cl)c3Cl)cc21 [Compound 220, (S)-2-((2-((2,2'-dichloro-3'-(5-(((2-hydroxyethyl)amino)methyl)picolinamido)-[1,1'-biphenyl]-3-yl)carbamoyl)-4,5,6,7-tetrahydropyrazolo[1,5-a]pyridin-4-yl)amino)acetic acid]
- pEC50 (PD-1/PD-L1 [1]): 7.87
- pIC50 (PD-1/PD-L1 [2]; [4]): > 8.00
- Cell surface PD-L1 expression level (%) [3]: 0.6%

SMILES: O=C(O)CN[C@H]1CCCn2nc(C(=O)Nc3cccc(-c4cccc(NC(=O)c5ccc(CN6CC[C@@H](O)C6)cn5)c4Cl)c3Cl)cc21 [Compound 222, 2-(((S)-2-((2,2'-dichloro-3'-(5-(((R)-3-hydroxypyrrolidin-1-yl)methyl)picolinamido)-[1,1'-biphenyl]-3-yl)carbamoyl)-4,5,6,7-tetrahydropyrazolo[1,5-a]pyridin-4-yl)amino)acetic acid]
- pEC50 (PD-1/PD-L1 [1]): 7.46
- pIC50 (PD-1/PD-L1 [2]; [4]): > 8.00
- Cell surface PD-L1 expression level (%) [3]: 0.3%

SMILES: O=C(O)CN[C@@H]1CCCn2nc(C(=O)Nc3cccc(-c4cccc(NC(=O)c5ccc(CN6CC[C@@H](O)C6)cn5)c4Cl)c3Cl)cc21 [Compound 223, 2-(((R)-2-((2,2'-dichloro-3'-(5-(((R)-3-hydroxypyrrolidin-1-yl)methyl)picolinamido)-[1,1'-biphenyl]-3-yl)carbamoyl)-4,5,6,7-tetrahydropyrazolo[1,5-a]pyridin-4-yl)amino)acetic acid]
- pIC50 (PD-1/PD-L1 [2]; [4]): 7.00 to 8.00
- Cell surface PD-L1 expression level (%) [3]: 66.4%

SMILES: O=C1CC[C@@H](CN[C@H]2CCCn3nc(C(=O)Nc4cccc(-c5cccc(NC(=O)c6ccc(CNCCO)cn6)c5Cl)c4Cl)cc32)N1 [Compound 224, (S)-N-(2,2'-dichloro-3'-(5-(((2-hydroxyethyl)amino)methyl)picolinamido)-[1,1'-biphenyl]-3-yl)-4-((((S)-5-oxopyrrolidin-2-yl)methyl)amino)-4,5,6,7-tetrahydropyrazolo[1,5-a]pyridine-2-carboxamide]
- pIC50 (PD-1/PD-L1 [2]; [4]): > 8.00
- Cell surface PD-L1 expression level (%) [3]: 70.8%

SMILES: O=C1CC[C@@H](CN[C@@H]2CCCn3nc(C(=O)Nc4cccc(-c5cccc(NC(=O)c6ccc(CNCCO)cn6)c5Cl)c4Cl)cc32)N1 [Compound 225, (R)-N-(2,2'-dichloro-3'-(5-(((2-hydroxyethyl)amino)methyl)picolinamido)-[1,1'-biphenyl]-3-yl)-4-((((S)-5-oxopyrrolidin-2-yl)methyl)amino)-4,5,6,7-tetrahydropyrazolo[1,5-a]pyridine-2-carboxamide]
- pIC50 (PD-1/PD-L1 [2]; [4]): 7.00 to 8.00
- Cell surface PD-L1 expression level (%) [3]: 1.6%

SMILES: O=C(Nc1cccc(-c2cccc(Nc3nccc4cc(CN5CC[C@H](O)C5)cnc34)c2Cl)c1Cl)c1cc2n(n1)CCC[C@@H]2N1CCC(C(=O)O)CC1 [Compound 226, 1-((S)-2-((2,2'-dichloro-3'-((3-(((S)-3-hydroxypyrrolidin-1-yl)methyl)-1,7-naphthyridin-8-yl)amino)-[1,1'-biphenyl]-3-yl)carbamoyl)-4,5,6,7-tetrahydropyrazolo[1,5-a]pyridin-4-yl)piperidine-4-carboxylic acid]
- pIC50 (PD-1/PD-L1 [2]; [4]): 7.00 to 8.00
- Cell surface PD-L1 expression level (%) [3]: 80.8%
